From PubChem BioAssay AID463229 (Broad Institute, 2010)

These compounds were tested on INS-1E rat beta cells, no cytokines, CellTiter-Glo ATP, 48 h (assay: ATP level change in INS-1E without cytokines, dose response, counter-screen for beta-cell apoptosis protection project, INS-1E rat cells, ATP luminescence, cherry pick (AID 463229)).
`Oc1ccc(N=Nc2nccs2)c(O)c1` was tested, and the AC50 was 6.64 µM. For `Cc1ccc(C(=O)Nc2nc(-c3ccccn3)cs2)cc1S(=O)(=O)N1CCOCC1`, the AC50 was 6.47 µM. Compound `N#Cc1ccc(-c2ccc(Cl)cc2)nc1SCC(=O)c1cccc(Cl)c1` has an AC50 of 6 µM. Work on `Cc1cc(C)c(C)c(S(=O)(=O)N2CCN(c3ncnc4ccccc34)CC2)c1C` yielded an AC50 of 6.34 µM. For `CC[n+]1ccc(/C=C/c2c[nH]c3ccccc23)cc1`, the AC50 was 5.85 µM. `C/C(=N\NC(=O)c1ccccc1OCc1ccc(F)cc1)c1ccccn1` was tested, and the AC50 was 8.35 µM. For `COc1cccc(C(NC(C)=O)c2ccc3cccnc3c2O)c1` (centres undefined), the AC50 was 3.78 µM. With `O=C(C#Cc1ccccc1)Nc1cccc(F)c1` the AC50 was 11.8 µM. For `COc1ccc(C2/C=C\CN(C(=O)c3ccccc3)[C@H](Cc3ccccc3)C(=O)N2Cc2ccc(F)cc2)cc1` (some centres undefined), the AC50 was 7.75 µM. `COc1ccc(C)cc1Nc1n[n+](-c2ccccc2)c(-c2ccc(OC)c(OC)c2OC)s1` was tested, and the AC50 was 14.5 µM. Compound `Oc1[nH]c2ccc(Br)cc2c1N=NC(=S)N1CCOCC1` has an AC50 of 2.39 µM. `CCCOc1ccc(CSc2nc3ccccc3[nH]2)cc1` showed an AC50 of 5.41 µM. `CCCC(=O)NC(c1ccc(Cl)cc1)c1ccc2cccnc2c1O` (centres undefined) was tested, and the AC50 was 2.08 µM. `COc1cccc(COc2cc3ccccc3nc2C)c1` was tested, and the AC50 was 3.51 µM. For `CC(Oc1cccc(Cl)c1)C(=O)Nc1cc(S(=O)(=O)N2CCOCC2)ccc1N1CCCCC1` (centres undefined), the AC50 was 5.68 µM. `Cc1sc2ncnc(NCC3COc4ccccc4O3)c2c1C` (centres undefined) showed an AC50 of 2.34 µM. In the case of `COc1ccc(-n2cc(-c3ccc(OC(F)F)cc3)[n+]3c2CCCCC3)cc1`, the AC50 is reported as 2.07 µM. Work on `O=C(NCC(c1ccco1)N1CCCC1)c1ccc(Cl)c(S(=O)(=O)N2CCc3ccccc32)c1` (centres undefined) yielded an AC50 of 7.47 µM. `O=C1C(C2=NC(c3ccccn3)C3C(=O)N(c4ccc(OC(F)(F)F)cc4)C(=O)C23)=C(O)c2ccccc21` (centres undefined) was tested, and the AC50 was 5.94 µM. `CCCCCCCCn1c2c(c(=N)c3c1CCC3)CCCC2` gave an AC50 of under 0.195 µM. `O=C(N/N=C/c1ccc(O)cc1O)c1ccc(CN2C(=O)c3cccc4cccc2c34)cc1` showed an AC50 of 3.89 µM. `O=C(NNC(=O)c1cccnc1SCc1cccc([N+](=O)[O-])c1)c1ccc(F)cc1` gave an AC50 of 15.8 µM. `CCCCOc1cc(NCc2ccccc2)c2ncn(C(C)C)c2c1` showed an AC50 of 7.26 µM. In the case of `Oc1ccc2ccccc2c1/C=N/Nc1nnc(-c2ncc[nH]2)c2ccccc12`, the AC50 is reported as 3.39 µM. Work on `COc1cccc(/C=N\NC(=O)c2ccc(Cn3cc(Br)c([N+](=O)[O-])n3)o2)c1O` yielded an AC50 of 7.9 µM. Compound `Cc1c(C)c2cccnc2c2ncccc12` has an AC50 of 2.49 µM. `Cc1cccnc1Nc1nc(-c2ccccn2)cs1` was tested, and the AC50 was 2.58 µM. Compound `CC(NC(=S)NC1CCCCC1)c1ccc(C(C)(C)C)cc1` (centres undefined) has an AC50 of 11.2 µM. `O=C(NN=C(c1ccccc1)c1ccccn1)c1ccccc1` was tested, and the AC50 was 2.55 µM. Work on `CCCCC(=O)NC(c1ccc(Cl)cc1)c1ccc2cccnc2c1O` (centres undefined) yielded an AC50 of 1.35 µM. For `Cc1c(C(=O)Nc2nc(-c3ccccn3)cs2)oc2ccccc12`, the AC50 was 17.4 µM. Compound `O=C(Nc1ccc(OC(F)(F)F)cc1)Nc1cccc([N+](=O)[O-])c1` has an AC50 of 3.8 µM. For `CC(C)(C)c1ccc(C2CC2C(=O)N/N=C\c2ccc[nH]2)cc1` (centres undefined), the AC50 was 0.987 µM. Compound `CCCC(=O)NC(c1ccc(Cl)cc1Cl)c1ccc2cccnc2c1O` (centres undefined) has an AC50 of 2.3 µM. `CCC(C)Sc1cccc(-c2nc3ccc(C)cn3c2NCc2ccccc2)c1` (centres undefined) was tested, and the AC50 was 9.3 µM. Compound `Cc1ccc(NS(=O)(=O)c2cc([N+](=O)[O-])ccc2N/N=C/c2sc(N3CCOCC3)nc2-c2ccccc2)c(C)c1` has an AC50 of 11.9 µM. With `CCC(=O)N1c2ccc(S(=O)(=O)N3CCN(c4ccc([N+](=O)[O-])cc4)CC3)cc2CC1C` (centres undefined) the AC50 was 6.37 µM. `O=C(NC1CCCC1)c1cc(COc2ccc3ncccc3c2)on1` was tested, and the AC50 was 5.91 µM. `CN(C1=C(NC(=O)c2ccc(Cl)cc2)C(=O)c2ccccc2C1=O)c1ccccc1` showed an AC50 of 13 µM. `Fc1cc(F)c2nc(Nc3nc4c(F)cccc4s3)sc2c1` gave an AC50 of 4.95 µM. Compound `NC(N)=N/N=C/c1ccc(N(c2ccccc2)c2ccccc2)cc1` has an AC50 of 7.36 µM. For `CCCCCCc1cc2cc(C(=O)Nc3ccccc3)c(=O)oc2cc1O`, the AC50 was 3.24 µM. For `COc1ccc(-c2nn(-c3ccccc3)cc2/C=N/N2C(=O)CSC2=S)cc1`, the AC50 was 6.57 µM. Work on `O=C(N/N=C/c1cc(Br)ccc1OC(=O)c1ccc(Br)cc1)c1ccncc1` yielded an AC50 of 6.01 µM. `COc1ccc(-c2ccc([C@H]3[C@@H]4C=CCC[C@@]4(C)C(=O)N3Cc3ccccc3)c(F)c2)cc1` gave an AC50 of 22.5 µM. With `NC1=NC[C@@H](CC2CCCCC2)N1CCc1cc(C(F)(F)F)cc(C(F)(F)F)c1` the AC50 was 9.46 µM. In the case of `COc1cccc(-c2nc(-c3ccc(NC(=O)c4cccnc4)cc3)no2)c1`, the AC50 is reported as 2.14 µM. With `Oc1ccc(Br)cc1CNc1cccc2cccnc12` the AC50 was 12.8 µM. `COc1ccc(C(=O)N/N=C(\C)c2ccccn2)cc1OC` was tested, and the AC50 was 2.54 µM. Work on `Oc1ccc(/C=N/Nc2ncc(Br)cn2)c(O)c1` yielded an AC50 of 3.83 µM. Compound `Cc1cc(C)n(-c2nc(Nc3ccccc3C(F)(F)F)nc(-n3nc(C)cc3C)n2)n1` has an AC50 of 6.87 µM. For `Cc1ccc(C2CC(c3ccc(C)cc3)n3nc(N)nc3N2)cc1` (centres undefined), the AC50 was 17.9 µM. Compound `CN(C)c1ccc(/C=C/c2ccc3ccccc3n2)cc1` has an AC50 of 2.28 µM. For `Cc1ccc(-c2nc(C(Cl)Cl)c3ccccc3n2)cc1`, the AC50 was 3.51 µM.
